According to the NIST ThermoML archive (doi:10.1021/je050001c):
Structures can show the parent of a compound that is named as a salt.

Conditions: 101.33 kPa, Liquid

CCCC(=O)OCCC(C)C [3-methylbutyl butanoate]
Conditions	mass density [kg/m3]
293.15 K	866.13
298.15 K	862.04
303.15 K	859.14
308.15 K	857.08
313.15 K	853.42
318.15 K	850.11
323.15 K	845.78
328.15 K	842.31
333.15 K	840.73
338.15 K	835.45
343.15 K	832.76

Falling or rolling sphere viscometry
Conditions	viscosity [mPa·s]
293.15 K	1.044
298.15 K	0.967
303.15 K	0.897
308.15 K	0.836
313.15 K	0.781
318.15 K	0.731
323.15 K	0.686
328.15 K	0.646
333.15 K	0.609
338.15 K	0.575
343.15 K	0.545

CC(=O)OCCC(C)C [3-methylbutyl ethanoate]
Conditions	mass density [kg/m3]
293.15 K	878.24
298.15 K	876.01
303.15 K	875.94
308.15 K	873.1
313.15 K	870.15
318.15 K	867.32
323.15 K	864.31
328.15 K	860.14
333.15 K	857.98
338.15 K	854.05
343.15 K	851.07

Falling or rolling sphere viscometry
Conditions	viscosity [mPa·s]
293.15 K	0.888
298.15 K	0.827
303.15 K	0.773
308.15 K	0.724
313.15 K	0.678
318.15 K	0.638
323.15 K	0.601
328.15 K	0.567
333.15 K	0.536
338.15 K	0.507
343.15 K	0.481

CCC/C=C/COC(C)=O [(E)-2-hexenyl acetate]
Conditions	mass density [kg/m3]
293.15 K	897.84
298.15 K	894.32
303.15 K	891.78
308.15 K	888.46
313.15 K	884.35
318.15 K	880.19
323.15 K	876.14
328.15 K	872.81
333.15 K	867.49

Falling or rolling sphere viscometry
Conditions	viscosity [mPa·s]
293.15 K	0.901
298.15 K	0.831
303.15 K	0.77
308.15 K	0.715
313.15 K	0.666
318.15 K	0.622
323.15 K	0.582
328.15 K	0.547
333.15 K	0.514

CC/C=C\CCOC(C)=O [(Z)-3-hexenyl acetate]
Conditions	mass density [kg/m3]
293.15 K	900.82
298.15 K	897.14
303.15 K	893.14
308.15 K	890.28
313.15 K	886.19
318.15 K	881.43
323.15 K	877.89
328.15 K	875.21
333.15 K	871.43

Falling or rolling sphere viscometry
Conditions	viscosity [mPa·s]
293.15 K	0.893
298.15 K	0.823
303.15 K	0.763
308.15 K	0.708
313.15 K	0.66
318.15 K	0.616
323.15 K	0.576
328.15 K	0.542
333.15 K	0.509

CC/C=C\CCOC=O [(Z)-3-hexenyl formate]
Conditions	mass density [kg/m3]
293.15 K	909.15
298.15 K	908.13
303.15 K	906.6
308.15 K	904.95
313.15 K	903.17
318.15 K	901.19
323.15 K	898.99
328.15 K	896.72
333.15 K	894.16
338.15 K	891.54
343.15 K	888.73

Falling or rolling sphere viscometry
Conditions	viscosity [mPa·s]
293.15 K	0.599
298.15 K	0.561
303.15 K	0.527
308.15 K	0.496
313.15 K	0.469
318.15 K	0.443
323.15 K	0.421
328.15 K	0.4
333.15 K	0.38
338.15 K	0.363
343.15 K	0.346

CCCCOC(=O)CCC [butyl butanoate]
Conditions	mass density [kg/m3]
293.15 K	872.45
298.15 K	869.14
303.15 K	866.1
308.15 K	862.19
313.15 K	858.94
318.15 K	854.31
323.15 K	851.47
328.15 K	848.01
333.15 K	846.22
338.15 K	844.03
343.15 K	841.47

Falling or rolling sphere viscometry
Conditions	viscosity [mPa·s]
293.15 K	0.948
298.15 K	0.876
303.15 K	0.812
308.15 K	0.755
313.15 K	0.705
318.15 K	0.659
323.15 K	0.618
328.15 K	0.581
333.15 K	0.548
338.15 K	0.517
343.15 K	0.486

CCCCOC(C)=O [butyl ethanoate]
Conditions	mass density [kg/m3]
293.15 K	881.04
298.15 K	876.45
303.15 K	871.3
308.15 K	866.25
313.15 K	861.84
318.15 K	857.32
323.15 K	854.61
328.15 K	850.78
333.15 K	847.92
338.15 K	844.39
343.15 K	841.77

Falling or rolling sphere viscometry
Conditions	viscosity [mPa·s]
293.15 K	0.732
298.15 K	0.677
303.15 K	0.628
308.15 K	0.585
313.15 K	0.546
318.15 K	0.512
323.15 K	0.481
328.15 K	0.453
333.15 K	0.428
338.15 K	0.405
343.15 K	0.384

CC/C=C\CCOC(=O)C(C)C [cis-3-hexenyl isobutyrate]
Conditions	mass density [kg/m3]
293.15 K	885.08
298.15 K	878.12
303.15 K	873.61
308.15 K	870.34
313.15 K	865.22
318.15 K	861.49
323.15 K	857.38
328.15 K	852.44
333.15 K	848.44
338.15 K	845.31
343.15 K	840.09

Falling or rolling sphere viscometry
Conditions	viscosity [mPa·s]
293.15 K	1.024
298.15 K	0.941
303.15 K	0.868
308.15 K	0.804
313.15 K	0.741
318.15 K	0.69
323.15 K	0.65
328.15 K	0.606
333.15 K	0.56
338.15 K	0.535
343.15 K	0.503

CCOC(=O)C(C)CC (stereo not drawn) [ethyl 2-methylbutanoate]
Conditions	mass density [kg/m3]
293.15 K	869.73
298.15 K	865
303.15 K	861.48
308.15 K	857.88
313.15 K	853.41
318.15 K	849.32
323.15 K	846.74
328.15 K	841.59
333.15 K	838.41
338.15 K	835.48
343.15 K	831.46

Falling or rolling sphere viscometry
Conditions	viscosity [mPa·s]
293.15 K	0.831
298.15 K	0.774
303.15 K	0.723
308.15 K	0.677
313.15 K	0.635
318.15 K	0.597
323.15 K	0.563
328.15 K	0.532
333.15 K	0.503
338.15 K	0.476
343.15 K	0.452

CCOC(=O)CC(C)C [ethyl 3-methylbutanoate]
Conditions	mass density [kg/m3]
293.15 K	866.23
298.15 K	864.01
303.15 K	860.12
308.15 K	855.98
313.15 K	851.79
318.15 K	847.39
323.15 K	846.24
328.15 K	842.35
333.15 K	840.07
338.15 K	836.31
343.15 K	833.62

Falling or rolling sphere viscometry
Conditions	viscosity [mPa·s]
293.15 K	0.805
298.15 K	0.752
303.15 K	0.703
308.15 K	0.659
313.15 K	0.62
318.15 K	0.581
323.15 K	0.544
328.15 K	0.516
333.15 K	0.485
338.15 K	0.457
343.15 K	0.431

CCOC(C)=O [ethyl acetate]
Conditions	mass density [kg/m3]
293.15 K	900.48
298.15 K	894.81
303.15 K	887.14
308.15 K	882.21
313.15 K	878.92
318.15 K	874.51
323.15 K	870.39
328.15 K	867.13
333.15 K	864.72
338.15 K	861.41
343.15 K	858.36

Falling or rolling sphere viscometry
Conditions	viscosity [mPa·s]
293.15 K	0.443
298.15 K	0.421
303.15 K	0.399
308.15 K	0.381
313.15 K	0.363
318.15 K	0.346
323.15 K	0.33
328.15 K	0.315
333.15 K	0.301
338.15 K	0.288
343.15 K	0.275

CCCC(=O)OCC [ethyl butanoate]
Conditions	mass density [kg/m3]
293.15 K	876.91
298.15 K	874.42
303.15 K	870.13
308.15 K	866.21
313.15 K	864.31
318.15 K	861.32
323.15 K	858.43
328.15 K	854.44
333.15 K	853.89
338.15 K	851.32
343.15 K	850.04

Falling or rolling sphere viscometry
Conditions	viscosity [mPa·s]
293.15 K	0.662
298.15 K	0.62
303.15 K	0.583
308.15 K	0.549
313.15 K	0.519
318.15 K	0.491
323.15 K	0.465
328.15 K	0.442
333.15 K	0.42
338.15 K	0.4
343.15 K	0.382

CCCCCC(=O)OCC [ethyl hexanoate]
Conditions	mass density [kg/m3]
293.15 K	879.01
298.15 K	872.53
303.15 K	869.31
308.15 K	866.74
313.15 K	863.28
318.15 K	860.19
323.15 K	856.42
328.15 K	851.93
333.15 K	847.88
338.15 K	845.32
343.15 K	841.46

Falling or rolling sphere viscometry
Conditions	viscosity [mPa·s]
293.15 K	0.816
298.15 K	0.757
303.15 K	0.704
308.15 K	0.656
313.15 K	0.614
318.15 K	0.576
323.15 K	0.541
328.15 K	0.509
333.15 K	0.482
338.15 K	0.456
343.15 K	0.429

CCOC=O [ethyl methanoate]
Conditions	mass density [kg/m3]
293.15 K	917.82
298.15 K	912.06
303.15 K	907.68
308.15 K	899.54
313.15 K	891.5
318.15 K	887.41
323.15 K	882.14

Falling or rolling sphere viscometry
Conditions	viscosity [mPa·s]
293.15 K	0.402
298.15 K	0.381
303.15 K	0.362
308.15 K	0.345
313.15 K	0.329
318.15 K	0.314
323.15 K	0.3

CCOC(=O)CC [ethyl propanoate]
Conditions	mass density [kg/m3]
293.15 K	891.62
298.15 K	884.1
303.15 K	879.31
308.15 K	874.12
313.15 K	870.61
318.15 K	867.34
323.15 K	864.33
328.15 K	860.89
333.15 K	858.14
338.15 K	856.81
343.15 K	853.48

Falling or rolling sphere viscometry
Conditions	viscosity [mPa·s]
293.15 K	0.523
298.15 K	0.492
303.15 K	0.464
308.15 K	0.441
313.15 K	0.418
318.15 K	0.398
323.15 K	0.378
328.15 K	0.36
333.15 K	0.344
338.15 K	0.329
343.15 K	0.315

CCCCCCOC(=O)CCC [hexyl butanoate]
Conditions	mass density [kg/m3]	viscosity [mPa·s]
293.15 K	860.73	1.351
298.15 K	851	1.234
303.15 K	846.52	1.131
308.15 K	841.51	1.014
313.15 K	837.46	0.961
318.15 K	834.65	0.889
323.15 K	830.78	0.825
328.15 K	828.19	0.768
333.15 K	826.77	0.716
338.15 K	823.81	0.669
343.15 K	820.76	0.627

CCCCCCOC(C)=O [hexyl ethanoate]
Conditions	mass density [kg/m3]
293.15 K	872.9
298.15 K	867.3
303.15 K	862.6
308.15 K	858.33
313.15 K	854.9
318.15 K	848.84
323.15 K	844.21
328.15 K	839.64
333.15 K	835.15
338.15 K	831.4
343.15 K	826.3

Falling or rolling sphere viscometry
Conditions	viscosity [mPa·s]
293.15 K	1.118
298.15 K	1.036
303.15 K	0.962
308.15 K	0.895
313.15 K	0.836
318.15 K	0.782
323.15 K	0.733
328.15 K	0.689
333.15 K	0.649
338.15 K	0.612
343.15 K	0.579
